Laboratory results as given in patent US9359308B2, “Pyrazine kinase inhibitors” (Portola Pharmaceuticals, Inc., priority 2011, dated 2016).

Target: T1, full length active recombinant SYK enzyme (Homo sapiens, UniProt P43405)
T1 construct: full length active recombinant SYK enzyme (Millipore, Calif.); purchased Millipore
Assay: Inhibition of Syk tyrosine phosphorylation activity (LANCE TR-FRET kinase assay)
Format: biochemical
Conditions: activity in the Syk assays, class symbols
How it was run: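 1 nM full-length active recombinant SYK phosphorylated 550 nM biotin-DEEDYESP-OH with 100 μM ATP in 50 mM Tris pH 7.5, 5 mM MgCl2, 1 mM DTT and 3% DMSO for 1 h at room temperature. After EDTA quench, Eu-anti-phosphotyrosine/SA-APC TR-FRET was read after 1 h. IC50s came from non-linear regression.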

SMILES | IC50 [µM]
Cc1cc(Nc2nc(N[C@H](CC[S+](C)[O-])C(N)=O)cnc2C(N)=O)sn1 (stereo partly drawn) [Example 399, 5-((2R)-1-amino-4-(methylsulfinyl)-1-oxobutan-2-ylamino)-3-(3-methylisothiazol-5-ylamino)pyrazine-2-carboxamide] | 0.1 to 1
Cc1cc(Nc2nc(N[C@H](CCS(C)(=O)=O)C(N)=O)cnc2C(N)=O)sn1 [Example 400, (R)-5-(1-amino-4-(methylsulfonyl)-1-oxobutan-2-ylamino)-3-(3-methylisothiazol-5-ylamino)pyrazine-2-carboxamide] | 0.01 to 0.1
Cc1cc(Nc2nc(NC3(C(N)=O)CCCCC3)cnc2C(N)=O)sn1 [Example 401, 5-(1-carbamoylcyclohexylamino)-3-(3-methylisothiazol-5-ylamino)pyrazine-2-carboxamide] | 0.01 to 0.1
COC[C@@H](Nc1cnc(C(N)=O)c(Nc2cc(C)ns2)n1)C(N)=O [Example 402, (R)-5-(1-amino-3-methoxy-1-oxopropan-2-ylamino)-3-(3-methylisothiazol-5-ylamino)pyrazine-2-carboxamide] | 0.01 to 0.1
CC[C@@H](Nc1cnc(C(N)=O)c(Nc2cc(-c3ccccc3)ns2)n1)C(N)=O [Example 403, (R)-5-(1-amino-1-oxobutan-2-ylamino)-3-(3-phenylisothiazol-5-ylamino)pyrazine-2-carboxamide] | 0.01 to 0.1
CC[C@@H](Nc1cnc(C(N)=O)c(Nc2ccc3ncncc3c2)n1)C(N)=O [Example 404, (R)-5-(1-amino-1-oxobutan-2-ylamino)-3-(quinazolin-6-ylamino)pyrazine-2-carboxamide] | 0.01 to 0.1
COC[C@@H](Nc1cnc(C(N)=O)c(Nc2cnc3cccnc3c2)n1)C(N)=O [Example 410, (R)-3-(1,5-naphthyridin-3-ylamino)-5-(1-amino-3-methoxy-1-oxopropan-2-ylamino)pyrazine-2-carboxamide] | 0.01 to 0.1
NC(=O)c1ncc(N[C@@H](C(N)=O)c2ccccc2)nc1Nc1cnc2cccnc2c1 [Example 411, (R)-3-(1,5-naphthyridin-3-ylamino)-5-(2-amino-2-oxo-1-phenylethylamino)pyrazine-2-carboxamide] | 0.01 to 0.1
NC(=O)c1ncc(N[C@@H]2CCCC[C@@H]2N)nc1N[C@H]1COc2ccccc2C1 [Example 415, 5-(((1R,2S)-2-aminocyclohexyl)amino)-3-((R)-chroman-3-ylamino)pyrazine-2-carboxamide] | 0.01 to 0.1
NC(=O)c1ncc(N[C@@H]2CCCC[C@@H]2N)nc1N[C@@H]1COc2ccccc2C1 [Example 416, 5-(((1R,2S)-2-aminocyclohexyl)amino)-3-((S)-chroman-3-ylamino)pyrazine-2-carboxamide] | 0.1 to 1
CC[C@@H](Nc1cnc(C(N)=O)c(Nc2ccc3nccn3c2)n1)C(N)=O [Example 426, (R)-5-((1-amino-1-oxobutan-2-yl)amino)-3-(imidazo[1,2-a]pyridin-6-ylamino)pyrazine-2-carboxamide] | 0.001 to 0.01
NC(=O)c1ncc(N[C@@H]2CCCC[C@@H]2N)nc1Nc1ccn2ccnc2c1 [Example 427, 5-(((1R,2S)-2-aminocyclohexyl)amino)-3-(imidazo[1,2-a]pyridin-7-ylamino)pyrazine-2-carboxamide] | 0.001 to 0.01
NC(=O)c1ncc(N[C@@H]2CCCC[C@@H]2N)nc1Nc1cc(-n2ccnn2)cc(-n2nccn2)c1 [Example 429, 3-((3-(1H-1,2,3-triazol-1-yl)-5-(2H-1,2,3-triazol-2-yl)phenyl)amino)-5-(((1R,2S)-2-aminocyclohexyl)amino)pyrazine-2-carboxamide] | 0.001 to 0.01
NC(=O)c1ncc(N[C@@H]2CCCC[C@@H]2N)nc1Nc1cnsc1 [Example 430, 5-(((1R,2S)-2-aminocyclohexyl)amino)-3-(isothiazol-4-ylamino)pyrazine-2-carboxamide] | 0.01 to 0.1
NC(=O)c1ncc(N[C@@H]2CCCC[C@@H]2N)nc1Nc1cc(N2CCOCC2)cc(-n2cccn2)c1 [Example 431, 5-(((1R,2S)-2-aminocyclohexyl)amino)-3-((3-morpholino-5-(1H-pyrazol-1-yl)phenyl)amino)pyrazine-2-carboxamide] | 0.001 to 0.01

Second part, the molecule after the results:

IC50 [µM] | SMILES
0.001 to 0.01 | Cn1ccc2cc(Nc3nc(N[C@H](CC4CC4)C(N)=O)cnc3C(N)=O)ccc21 [Example 396, (R)-5-(1-amino-3-cyclopropyl-1-oxopropan-2-ylamino)-3-(1-methyl-1H-indol-5-ylamino)pyrazine-2-carboxamide]
0.001 to 0.01 | Cn1ccc2c(Nc3nc(N[C@H](CC4CC4)C(N)=O)cnc3C(N)=O)cccc21 [Example 397, (R)-5-(1-amino-3-cyclopropyl-1-oxopropan-2-ylamino)-3-(1-methyl-1H-indol-4-ylamino)pyrazine-2-carboxamide]
0.001 to 0.01 | Cc1cc(Nc2nc(N[C@H](CC(F)(F)F)C(N)=O)cnc2C(N)=O)sn1 [Example 398, (R)-5-(1-amino-4,4,4-trifluoro-1-oxobutan-2-ylamino)-3-(3-methylisothiazol-5-ylamino)pyrazine-2-carboxamide]
0.001 to 0.01 | NC(=O)c1ncc(N[C@@H]2CCCC(F)(F)[C@@H]2N)nc1Nc1ccc2ncncc2c1 [Example 405, 5-((1R,2R)-2-amino-3,3-difluorocyclohexylamino)-3-(quinazolin-6-ylamino)pyrazine-2-carboxamide]
0.001 to 0.01 | NC(=O)c1ncc(N[C@H](CC2CC2)C(N)=O)nc1Nc1cnc2cccnc2c1 [Example 406, (R)-3-(1,5-naphthyridin-3-ylamino)-5-(1-amino-3-cyclopropyl-1-oxopropan-2-ylamino)pyrazine-2-carboxamide]
0.001 to 0.01 | CC(C)C[C@@H](Nc1cnc(C(N)=O)c(Nc2cnc3cccnc3c2)n1)C(N)=O [Example 407, (R)-3-(1,5-naphthyridin-3-ylamino)-5-(1-amino-4-methyl-1-oxopentan-2-ylamino)pyrazine-2-carboxamide]
0.001 to 0.01 | Cc1cc(Nc2nc(N[C@@H]3CCOC[C@@H]3N)cnc2C(N)=O)sn1 [Example 408, 5-((3R,4R)-3-aminotetrahydro-2H-pyran-4-ylamino)-3-(3-methylisothiazol-5-ylamino)pyrazine-2-carboxamide]
0.001 to 0.01 | NC(=O)c1ncc(N[C@H](Cc2cccs2)C(N)=O)nc1Nc1cnc2cccnc2c1 [Example 409, (R)-3-(1,5-naphthyridin-3-ylamino)-5-(1-amino-1-oxo-3-(thiophen-2-yl)propan-2-ylamino)pyrazine-2-carboxamide]
< 0.001 | NC(=O)c1ncc(N[C@@H]2CCCC[C@@H]2N)nc1Nc1snc2ncccc12 [Example 412, 5-((1R,2S)-2-aminocyclohexylamino)-3-(isothiazolo[3,4-b]pyridin-3-ylamino)pyrazine-2-carboxamide]
< 0.001 | NC(=O)c1ncc(N[C@@H]2CCCC[C@@H]2N)nc1Nc1cnn2ccccc12 [Example 413, 5-(((1R,2S)-2-aminocyclohexyl)amino)-3-(pyrazolo[1,5-a]pyridin-3-ylamino)pyrazine-2-carboxamide]
< 0.001 | NC(=O)c1ncc(N[C@@H]2CCCC[C@@H]2N)nc1Nc1cccnc1 [Example 417, 5-(((1R,2S)-2-aminocyclohexyl)amino)-3-(pyridin-3-ylamino)pyrazine-2-carboxamide]
0.001 to 0.01 | NC(=O)c1ncc(N[C@@H]2CCCC[C@@H]2N)nc1Nc1cncc(F)c1 [Example 418, 5-(((1R,2S)-2-aminocyclohexyl)amino)-3-((5-fluoropyridin-3-yl)amino)pyrazine-2-carboxamide]
0.001 to 0.01 | NC(=O)c1ncc(N[C@@H]2CCCC[C@@H]2N)nc1Nc1cnc2cccnc2c1 [Example 419, 3-((1,5-naphthyridin-3-yl)amino)-5-(((1R,2S)-2-aminocyclohexyl)amino)pyrazine-2-carboxamide]
0.001 to 0.01 | NC(=O)c1ncc(N[C@@H]2CCCC[C@@H]2N)nc1Nc1cnc2ncccc2c1 [Example 420, 3-((1,8-naphthyridin-3-yl)amino)-5-(((1R,2S)-2-aminocyclohexyl)amino)pyrazine-2-carboxamide]
0.001 to 0.01 | CC[C@@H](Nc1cnc(C(N)=O)c(Nc2cnn3ccccc23)n1)C(N)=O [Example 421, (R)-5-((1-amino-1-oxobutan-2-yl)amino)-3-(pyrazolo[1,5-a]pyridin-3-ylamino)pyrazine-2-carboxamide]
0.001 to 0.01 | NC(=O)c1ncc(N[C@@H]2CCCC[C@@H]2N)nc1Nc1cncc(-c2ncccn2)c1 [Example 422]
0.001 to 0.01 | NC(=O)c1ncc(N[C@@H]2CCCC[C@@H]2N)nc1Nc1cc(-c2ncccn2)cc(-c2ncccn2)c1 [Example 423, 5-(((1R,2S)-2-aminocyclohexyl)amino)-3-((3,5-di(pyrimidin-2-yl)phenyl)amino)pyrazine-2-carboxamide]
0.001 to 0.01 | NC(=O)c1ncc(N[C@@H]2CCCC[C@@H]2N)nc1Nc1cc(-n2nccn2)cc(-n2nccn2)c1 [Example 424, 5-(((1R,2S)-2-aminocyclohexyl)amino)-3-((3,5-di(2H-1,2,3-triazol-2-yl)phenyl)amino)pyrazine-2-carboxamide]
0.001 to 0.01 | NC(=O)c1ncc(N[C@@H]2CCCC[C@@H]2N)nc1Nc1ccc2nccn2c1 [Example 425, 5-(((1R,2S)-2-aminocyclohexyl)amino)-3-(imidazo[1,2-a]pyridin-6-ylamino)pyrazine-2-carboxamide]
< 0.001 | NC(=O)c1ncc(N[C@@H]2CCCC[C@@H]2N)nc1Nc1csc2ncccc12 [Example 428, 5-(((1R,2S)-2-aminocyclohexyl)amino)-3-(thieno[2,3-b]pyridin-3-ylamino)pyrazine-2-carboxamide]
